Measured values taken from US20120220562A1, “Anti-Viral Compounds” (ABBOTT LABAORATORIES, priority 2011, published 2012).

test system: HCV 1b-Con1 replicon; assay: HCV 1b-Con1 replicon assay in the presence of 5% FBS; format: cell-based; details: Hepatitis C virus

Q: Which EC50 does the source give for `COC(=O)N[C@H](C(=O)N1CCC[C@H]1c1nc2cc([C@H]3CC[C@H](c4ccc5[nH]c([C@@H]6CCCN6C(=O)[C@@H](NC(=O)OC)C(C)C)nc5c4)N3c3cc(F)c(N4CCOC(c5ccccc5)C4)c(F)c3)ccc2[nH]1)C(C)C` (stereo partly drawn) [Example 4.49, methyl {(2S)-1-[(2S)-2-{5-[(2R,5R)-1-[3,5-difluoro-4-(2-phenylmorpholin-4-yl)phenyl]-5-{2-[(2S)-1-{(2S)-2-[(methoxycarbonyl)amino]-3-methylbutanoyl}pyrrolidin-2-yl]-1H-benzimidazol-5-yl}pyrrolidin-2-yl]-1H-benzimidazol-2-yl}pyrrolidin-1-yl]-3-methyl-1-oxobutan-2-yl}carbamate] here?
A: < 0.1 nM

Q: With `COC(=O)N[C@H](C(=O)N1CCC[C@H]1c1nc2cc([C@H]3CC[C@H](c4ccc5[nH]c([C@@H]6CCCN6C(=O)[C@@H](NC(=O)OC)C(C)C)nc5c4)N3c3cc(F)c(N4CC(C)(C)C4)c(F)c3)ccc2[nH]1)C(C)C` [Example 4.24, methyl {(2S)-1-[(2S)-2-{5-[(R2R,5R)-1-[4-(3,3-dimethylazetidin-1-yl)-3,5-difluorophenyl]-5-{2-[(2S)-1-{(2S)-2-[(methoxycarbonyl)amino]-3-methylbutanoyl}pyrrolidin-2-yl]-1H-benzimidazol-5-yl}pyrrolidin-2-yl]-1H-benzimidazol-2-yl}pyrrolidin-1-yl]-3-methyl-1-oxobutan-2-yl}carbamate] as the compound, how does the EC50 read?
A: < 0.1 nM

Q: `COC(=O)N[C@H](C(=O)N1CCC[C@H]1c1nc2cc([C@H]3CC[C@H](c4ccc5[nH]c([C@@H]6CCCN6C(=O)[C@@H](NC(=O)OC)C(C)C)nc5c4)N3c3cc(F)c(N4CCN(c5ccc(C(F)(F)F)cc5)CC4)c(F)c3)ccc2[nH]1)C(C)C` [Example 2.17, methyl {(2S)-1-[(2S)-2-{5-[(2R,5R)-1-(3,5-difluoro-4-{4-[4-(trifluoromethyl)phenyl]piperazin-1-yl}phenyl)-5-{2-[(2S)-1-(2S)-2-[(methoxycarbonyl)amino]-3-methylbutanoylpyrrolidin-2-yl]-1H-benzimidazol-5-yl}pyrrolidin-2-yl]-1H-benzimidazol-2-yl}pyrrolidin-1-yl]-3-methyl-1-oxobutan-2-yl}carbamate] was tested. Which EC50 did it give?
A: < 0.1 nM

Q: How did the EC50 turn out when `COC(=O)N[C@H](C(=O)N1CCC[C@H]1c1nc2cc(C3CCC(c4cc5nc([C@@H]6CCCN6C(=O)[C@@H](NC(=O)OC)C(C)C)[nH]c5cc4F)N3c3cc(F)c(N4C[C@@H](C)O[C@@H](C)C4)c(F)c3)c(F)cc2[nH]1)C(C)C` (stereo partly drawn) [Example 4.51] was run?
A: < 0.1 nM

Q: How did the EC50 turn out when `COC(=O)N[C@H](C(=O)N1[C@H](c2nc3cc([C@H]4CC[C@H](c5ccc6[nH]c([C@@H]7C[C@@H]8CCC[C@@H]8N7C(=O)[C@@H](NC(=O)OC)[C@@H](C)OC)nc6c5)N4c4cc(F)c(N5CCCCC5)c(F)c4)ccc3[nH]2)C[C@@H]2CCC[C@@H]21)C(C)C` [Example 10.2, methyl {(2S,3R)-1-[(2S,3aS,6aS)-2-{5-[(2R,5R)-1-[3,5-difluoro-4-(piperidin-1-yl)phenyl]-5-{2-[(2S,3aS,6aS)-1-{(2S)-2-[(methoxycarbonyl)amino]-3-methylbutanoyl}octahydrocyclopenta[b]pyrrol-2-yl]-1H-benzimidazol-5-yl}pyrrolidin-2-yl]-1H-benzimidazol-2-yl}hexahydrocyclopenta[b]pyrrol-1(2H)-yl]-3-methoxy-1-oxobutan-2-yl}carbamate] was run?
A: < 0.1 nM

Q: With `COC(=O)N[C@H](C(=O)N1CCC[C@H]1c1nc2cc([C@H]3CC[C@H](c4ccc5[nH]c([C@@H]6CCCN6C(=O)[C@@H](NC(=O)OC)C(C)C)nc5c4)N3c3cc(F)c(N4CCC(c5ccccc5)(c5ccccc5)CC4)c(F)c3)ccc2[nH]1)C(C)C` [Example 5.2, methyl {(2S)-1-[(2S)-2-{5-[(2R,5R)-1-[4-(4,4-diphenylpiperidin-1-yl)-3,5-difluorophenyl]-5-{2-[(2S)-1-{(2S)-2-[(methoxycarbonyl)amino]-3-methylbutanoyl}pyrrolidin-2-yl]-1H-benzimidazol-5-yl}pyrrolidin-2-yl]-1H-benzimidazol-2-yl}pyrrolidin-1-yl]-3-methyl-1-oxobutan-2-yl}carbamate] as the compound, how does the EC50 read?
A: < 0.1 nM

Q: How did the EC50 turn out when `COC(=O)N[C@H](C(=O)N1CCC[C@H]1c1nc2cc([C@H]3CC[C@H](c4cc5nc([C@@H]6CCCN6C(=O)[C@@H](NC(=O)OC)C(C)C)[nH]c5cc4F)N3c3cc(F)c(N4CCN(c5ccc(C(F)(F)F)cc5)CC4)c(F)c3)c(F)cc2[nH]1)C(C)C` [Example 4.42, methyl {(2S)-1-[(2S)-2-{5-[(2R,5R)-1-(3,5-difluoro-4-{4-[4-(trifluoromethyl)phenyl]piperazin-1-yl}phenyl)-5-{6-fluoro-2-[(2S)-1-{(2S)-2-[(methoxycarbonyl)amino]-3-methylbutanoyl}pyrrolidin-2-yl]-1H-benzimidazol-5-yl}pyrrolidin-2-yl]-6-fluoro-1H-benzimidazol-2-yl}pyrrolidin-1-yl]-3-methyl-1-oxobutan-2-yl}carbamate] was run?
A: < 0.1 nM

Q: How did the EC50 turn out when `COC(=O)N[C@H](C(=O)N1CCC[C@H]1c1nc2cc([C@H]3CC[C@H](c4ccc5[nH]c([C@@H]6CCCN6C(=O)[C@@H](NC(=O)OC)C(C)C)nc5c4)N3c3cc(F)c(N4CCCCC4c4ccccc4)c(F)c3)ccc2[nH]1)C(C)C` (stereo partly drawn) [Example 4.50, methyl {(2S)-1-[(2S)-2-{5-[(2R,5R)-1-[3,5-difluoro-4-(2-phenylpiperidin-1-yl)phenyl]-5-{2-[(2S)-1-{(2S)-2-[(methoxycarbonyl)amino]-3-methylbutanoyl}pyrrolidin-2-yl]-1H-benzimidazol-5-yl}pyrrolidin-2-yl]-1H-benzimidazol-2-yl}pyrrolidin-1-yl]-3-methyl-1-oxobutan-2-yl}carbamate] was run?
A: < 0.1 nM

Q: Which EC50 does the source give for `COC(=O)N[C@H](C(=O)N1CCC[C@H]1c1nc2cc([C@H]3CC[C@H](c4ccc5[nH]c([C@@H]6CCCN6C(=O)[C@@H](NC(=O)OC)C(C)C)nc5c4)N3c3cc(F)c(N4CCC(C(F)(F)F)CC4)c(F)c3)ccc2[nH]1)C(C)C` [Example 5.8, methyl {(2S)-1-[(2S)-2-{5-[(2R,5R)-1-{3,5-difluoro-4-[4-(trifluoromethyl)piperidin-1-yl]phenyl}-5-{2-[(2S)-1-{(2S)-2-[(methoxycarbonyl)amino]-3-methylbutanoyl}pyrrolidin-2-yl]-1H-benzimidazol-5-yl}pyrrolidin-2-yl]-1H-benzimidazol-2-yl}pyrrolidin-1-yl]-3-methyl-1-oxobutan-2-yl}carbamate] here?
A: < 0.1 nM

Q: How did the EC50 turn out when `COC(=O)N[C@H](C(=O)N1CCC[C@H]1c1nc2cc([C@H]3CC[C@H](c4ccc5[nH]c([C@@H]6CCCN6C(=O)[C@@H](NC(=O)OC)C6CCOCC6)nc5c4)N3c3ccc(N4CCC(c5ccccc5)CC4)c(F)c3)ccc2[nH]1)C(C)C` [Example 3.21, methyl [(1S)-2-[(2S)-2-{5-[(2R,5R)-1-[3-fluoro-4-(4-phenylpiperidin-1-yl)phenyl]-5-{2-[(2S)-1-{(2S)-2-[(methoxycarbonyl)amino]-3-methylbutanoyl}pyrrolidin-2-yl]-1H-benzimidazol-5-yl}pyrrolidin-2-yl]-1H-benzimidazol-2-yl}pyrrolidin-1-yl]-2-oxo-1-(tetrahydro-2H-pyran-4-yl)ethyl]carbamate] was run?
A: < 0.1 nM

Q: Which EC50 does the source give for `COC(=O)N[C@H](C(=O)N1CCC[C@H]1c1nc2cc([C@H]3CC[C@H](c4ccc5[nH]c([C@@H]6CCCN6C(=O)[C@@H](NC(=O)OC)C(C)C)nc5c4)N3c3cc(F)c(N4CCCCC4)cc3F)ccc2[nH]1)C(C)C` [Example 4.5, methyl {(2S)-1-[(2S)-2-{5-[(2R,5R)-1-[2,5-difluoro-4-(piperidin-1-yl)phenyl]-5-{2-[(2S)-1-{(2S)-2-[(methoxycarbonyl)amino]-3-methylbutanoyl}pyrrolidin-2-yl]-1H-benzimidazol-5-yl}pyrrolidin-2-yl]-1H-benzimidazol-2-yl}pyrrolidin-1-yl]-3-methyl-1-oxobutan-2-yl}carbamate] here?
A: < 0.1 nM

Q: `COC(=O)N[C@H](C(=O)N1CCC[C@H]1c1nc2cc([C@H]3CC[C@H](c4ccc5[nH]c([C@@H]6CCCN6C(=O)[C@@H](NC(=O)OC)C(C)C)nc5c4)N3c3ccc(-c4ncco4)cc3)ccc2[nH]1)C(C)C` [Example 2.1, methyl {(2S)-1-[(2S)-2-(5-{(2R,5R)-5-{2-[(2S)-1-{(2S)-2-[(methoxycarbonyl)amino]-3-methylbutanoyl}pyrrolidin-2-yl]-1H-benzimidazol-5-yl}-1-[4-(1,3-oxazol-2-yl)phenyl]pyrrolidin-2-yl}-1H-benzimidazol-2-yl)pyrrolidin-1-yl]-3-methyl-1-oxobutan-2-yl}carbamate] was tested. Which EC50 did it give?
A: < 0.1 nM

Q: With `COC(=O)N[C@H](C(=O)N1CCC[C@H]1c1nc2cc([C@H]3CC[C@H](c4ccc5[nH]c([C@@H]6CCCN6C(=O)[C@@H](NC(=O)OC)C6CCCCC6)nc5c4)N3c3cc(F)c(N4CCCCC4)c(F)c3)ccc2[nH]1)C1CCCCC1` [Example 5.6, dimethyl ({(2R,5R)-1-[3,5-difluoro-4-(piperidin-1-yl)phenyl]pyrrolidine-2,5-diyl}bis{1H-benzimidazole-5,2-diyl(2S)pyrrolidine-2,1-diyl [(1S)-1-cyclohexyl-2-oxoethane-2,1-diyl]})biscarbamate] as the compound, how does the EC50 read?
A: < 0.1 nM

Q: Which EC50 does the source give for `COC(=O)N[C@H](C(=O)N1CCC[C@H]1c1nc2cc([C@H]3CC[C@H](c4ccc5[nH]c([C@@H]6CCCN6C(=O)[C@@H](NC(=O)OC)C(C)C)nc5c4)N3c3cc(F)c(N4CCC(C(C)=O)(c5ccccc5)CC4)c(F)c3)ccc2[nH]1)C(C)C` [Example 4.17, methyl {(2S)-1-[(2S)-2-{5-[(2R,5R)-1-[4-(4-acetyl-4-phenylpiperidin-1-yl)-3,5-difluorophenyl]-5-{2-[(2S)-1-{(2S)-2-[(methoxycarbonyl)amino]-3-methylbutanoyl}pyrrolidin-2-yl]-1H-benzimidazol-5-yl}pyrrolidin-2-yl]-1H-benzimidazol-2-yl}pyrrolidin-1-yl]-3-methyl-1-oxobutan-2-yl}carbamate] here?
A: < 0.1 nM

Q: Which EC50 does the source give for `COC(=O)N[C@H](C(=O)N1CCC[C@H]1c1nc2cc([C@H]3CC[C@H](c4cc5nc([C@@H]6CCCN6C(=O)[C@@H](NC(=O)OC)C(C)C)[nH]c5cc4F)N3c3cc(F)c(N4CCC(c5ccccc5)CC4)c(F)c3)c(F)cc2[nH]1)C(C)C` [Example 6.11, methyl {(2S)-1-[(2S)-2-{5-[(2R,5R)-1-[3,5-difluoro-4-(4-phenylpiperidin-1-yl)phenyl]-5-{6-fluoro-2-[(2S)-1-{(2S)-2-[(methoxycarbonyl)amino]-3-methylbutanoyl}pyrrolidin-2-yl]-1H-benzimidazol-5-yl}pyrrolidin-2-yl]-6-fluoro-1H-benzimidazol-2-yl}pyrrolidin-1-yl]-3-methyl-1-oxobutan-2-yl}carbamate] here?
A: < 0.1 nM
